The text below walks through data of patent publication US10786522B2, “Compositions that include anthocyanidins and methods of use” (Maqui NewLife S.A., priority 2009, dated 2020).

One test relates to PPAR-γ. Nature of the test: PPAR-γ-Luc reporter assay in HL-60 cells. The following applies: control substances, 12 h, concentration not given. It is filed as cell-based, Human. The procedure: We examined the effect of delphindin-rich anthocyanidins on PPAR-γ activation. HL-60 cells in IMDM medium were transfected with the reporter vectors PPAR-γ-Luc (5 μg) (Panomics) and TK-RL (1 μg) (Promega) using Fugene 6 reagent (Roche), and cultured for 24 hr. Then, the cells were incubated for 12 h in 0.175, 1.75, or 17.5 μg/ml of delphindin-rich anthocyanidins, phorbol myristate acetate (PMA), 15-deoxi-d 12,14-prostaglandin J2 (PGj2), or tumor necrosis factor alpha (TNFα) as controls. Luciferase activity was measured using the Dual-Luciferase Reporter Assay kit (DLR) from Promega in a luminometer (Luminoskan).
On the technique in general: A reporter such as luciferase makes a cellular process visible.

A further test has as its system NF-κB. In words: NF-κB luciferase reporter assay in HL-60 cells. The test is classed as cell-based, Human. The following applies: positive control, concentration not given. On the procedure: We examined the effect of anthocyanidins on NF-κB activation using a luciferase reporter assay in HL-60 cells (Human promyelocytic leukemia cells). HL-60 cells in IMDM medium were transfected with a reporter vector with an NF-kB consensus sequence located in the luciferase promoter for 24 h at 37° C., then were incubated with delphinidin-rich anthocyanidins diluted 1:500000, 1:50000, and 1:5000. PMA was used as positive control. Luciferase activity was measured with a Dual luciferase assay kit (Promega) according to the supplier's instructions. A vector that constitutively expressed renilla luciferase was used to standardize the assay.

For test [1], the system named is Human T cells. Nature of the test: INF-γ production in freshly isolated human T cells (ELISA). The test is classed as cell-based. On the procedure:
(§1) The effect of delphinidin on IL-2 and INF-γ production was also assayed on freshly isolated human T cells. Human T cells were isolated from blood of healthy volunteers using Lymphoprep reagent. T cells (1×10^6) in RMPI medium were incubated for 48 hrs at 37° C., in 5% CO2 in the presence of a vehicle control solution; 50 μM delphinidin; 50 μM delphinidin+1 μM BTP-2; 50 μM delphinidin+5 μM BTP-2; 50 μM delphinidin+10 μM BTP-2; 1 μM BTP-2; 5 μM. BTP-2; or 10 μM BTP-2. Then the supernatants were collected and analyzed using commercial ELISA kit (Becton Dickinson, USA) to measure IL-2 and INF-γ production according to the supplier's directions.

Test [2] relates to Jurkat T cells. In words: IL-2 production in Jurkat T cells (ELISA). It is filed as cell-based. On the procedure: (§2) 2×10^6 Jurkat T cells in RPMI medium were incubated for 48 hrs at 37° C., in 5% CO2 in the presence of vehicle control solution; or the T cell activator, phorbol 12-myristate 13-acetate/lonomycin (PMA/Io 2 ng/ml 1 uM); 50 μM of delphinidin; 50 μM delphinidin+PMA/Io; 50 μM cyanidin; or 50 μM cyaniding+PMA/Io. Then the supernatants were collected and IL-2 production was analyzed by ELISA using a commercial kit (Becton Dickinson, USA) according to the supplier's directions.
Then the supernatants were collected and analyzed using commercial ELISA kit (Becton Dickinson, USA) to measure IL-2 production according to the supplier's directions.
Jurkat T cells were incubated in either a vehicle control solution; 5 nM andrographolide; 50 μM delphinidin; or 5 nM andrographolide plus 50 μM delphinidin.
On the technique in general: An ELISA detects its analyte on a solid surface through an enzyme-linked reagent.

The subject of test [3] is Jurkat T cells. Nature of the test: Ca2+ fluxes in FURA 2-AM-loaded Jurkat T cells (spectrofluorimetry, medium with CaCl2). It is filed as cell-based. On the procedure:
We evaluated the effect of delphinidin on intracellular calcium release in Jurkat T cells. Extracts were prepared according to the method of Example 1. Jurkat T cells in Hanks' Balanced Salt Solution (HBSS) medium (Invitrogen) with 0.9 mM of CaCl2 were loaded with Fura-2-acetoxymethyl ester (2.5 uM FURA 2-AM) for 30 min at 37° C., washed and incubated in 10 μM, 50 μM, and 100 μM delphinidin. The fluxes of Ca^2+ were measured as ratio of excitation at 340 and 380 nm, and emission at 509 nm, for 300 seconds, at 37° C. in a spectrofluorimeter (LS55, PerkinElmer).
For orientation: A change in cytosolic calcium serves as a functional read-out for many receptors and channels.

Test [4] relates to Jurkat T cells. Nature of the test: Calcium release in Jurkat T cells in HBSS calcium free medium. It is filed as cell-based. The procedure:
To measure calcium release, 4×10^6 FURA 2-AM-loaded Jurkat T cells were incubated in HBSS calcium free medium as decribed in Example 6. The cells were incubated in 50 uM delphinidin, or in 50 uM delphinidin and 10 μM N-[4-[3,5-bis(trifluoromethyl)-1H-pyrazol-1-yl]phenyl]-4-methyl-1,2,3-thiadiazole-5-carboxamide (BTP-2, a Store-Operated Calcium Entry (SOCE) inhibitor). The release of Ca^2+ was measured as ratio of excitation at 340 and 380 nm, and emission at 509 nm, for 200 seconds, at 37° C., in a spectrofluorimeter (LS55, PerkinElmer).
4×10^6 FURA 2-AM-loaded Jurkat T cells were incubated in HBSS calcium free medium. The cells were then incubated in 50 uM delphinidin and the fluxes of Ca^2+ were measured as ratio of excitation at 340 and 380 nm, and emission at 509 nm, at 37° C. in a spectrofluorimeter (LS55, PerkinElmer).
4×10^6 FURA 2-AM-loaded Jurkat T cells were incubated in HBSS calcium free medium. The cells were then treated with vehicle alone or 50 or 100 uM U73122 for 10 minutes prior to incubation in 50 uM delphinidin. Ca^2+ flux was measured as ratio of excitation at 340 and 380 nm, and emission at 509 nm, at 37° C. in a spectrofluorimeter (LS55, PerkinElmer).

In test [5] the test system is Human T cells. In words: IL-2 production in freshly isolated human T cells (ELISA). The test is classed as cell-based. The procedure:
as §1
We evaluated the effect of a combination of delphinidin and andandrographolide on IL-2 production in both freshly harvested human T cells and the Jurkat cell line. Andrographolide was prepared according to the method described in Example 4. Human T cells were isolated from blood of healthy volunteers using Lymphoprep reagent. T cells (1×10^6) in RMPI medium were incubated for 48 hrs at 37° C., in 5% CO2 in the presence of a vehicle control solution; 5 nM andrographolide; 50 μM delphinidin; or 5 nM andrographolide plus 50 μM delphinidin. Then the supernatants were collected and analyzed using commercial ELISA kit (Becton Dickinson, USA) to measure IL-2 production according to the supplier's directions.

Test [6] concerns Jurkat T cells. Nature of the test: IL-2 production in Jurkat T cells (ELISA). The test is classed as cell-based. The following applies: Table 9; 48 hrs; delphinidin 50 μM, CsA.
The subject of test [7] is Jurkat T cells. Nature of the test: INF-γ production in Jurkat T cells (ELISA). The test is classed as cell-based. The following applies: 48 hrs. The procedure:
as §2, with “We also explored the effect of delphinidin and cyanidin on Interferon-gamma (INF-γ) production in Jurkat T cells. 2×10^6” for “2×10^6”, “CO2. The samples were incubated” for “CO2”, “13-acetate/Ionomycin” for “13-acetate/lonomycin”, “IFN-γ” for “IL-2”

Test [8] deals with Jurkat T cells. In words: Calcium entry (SOCE) in Jurkat T cells after addition of CaCl2. The following applies: 0.9 mM CaCl2 added after 200 seconds; delphinidin 50 μM, BTP-2 10 μM. The test is classed as cell-based. The procedure: To measure calcium entry after 200 seconds, when the levels of calcium returned to the baseline, 0.9 mM of CaCl2 was added, and the fluxes of Ca^2+ were measured as ratio of excitation ratio at 340 and 380 nm, and emission at 509 nm in a spectrofluorimeter during 150 seconds.
4×10^6 FURA 2-AM-loaded Jurkat T cells were incubated in HBSS calcium free medium. The cells were incubated in 50 uM delphinidin or 50 uM delphinidin plus 10 μM BTP-2 and the fluxes of Ca^2+ were measured as ratio of excitation at 340 and 380 nm, and emission at 509 nm, at 37° C. in a spectrofluorimeter (LS55, PerkinElmer).

[9] abbreviates: 48 hrs, 50 μM delphinidin alone.
Where [10] appears, read: Table 5, 48 hrs, delphinidin 50 μM, cyanidin 50 μM, PMA/Io 2 ng/ml 1 uM.
Where [11] appears, read: Table 11, andrographolide 5 nM, delphinidin 50 μM.
[12] abbreviates: andrographolide 5 nM, delphinidin 50 μM.
[13] abbreviates: calcium free medium, delphinidin 50 μM, BTP-2 10 μM.
Setting [14] is: Table 10, 48 hrs, andrographolide 5 nM, delphinidin 50 μM.
Setting [15] is: delphinidin 50 μM, cyanidin 50 μM, PMA/Io 2 ng/ml 1 uM.

In the case of `CCCCCCCCCCCCCC(=O)O[C@@H]1[C@@H](C)[C@@]2(O)[C@@H](C=C(CO)C[C@]3(O)C(=O)C(C)=C[C@@H]23)[C@@H]2C(C)(C)[C@]12OC(C)=O` [PMA, phorbol myristate acetate], the “Average percentage activity of control [PPAR-γ-Luc/TK-RL] ± SD” value with PPAR-γ was determined as 527.5 ± 536.3%. Further, the “Average percentage activity of control [pNF-κB/pRL-luc]” value in the test on NF-κB came out at 50%.

Regarding `Oc1cc(O)c2cc(O)c(-c3cc(O)c(O)c(O)c3)[o+]c2c1` [delphinidin, Delphinidin], the “INF-γ levels higher than untreated control cells” value is on record as 950% with Human T cells [1] (50 μM delphinidin) and 250% in the test on Jurkat T cells [7] (50 μM). In addition, the results for the “Average INF-γ production” value with Human T cells [1] (setting [9]) and with Jurkat T cells [7] (setting [15]) were 3900 pg/mL and 28 pg/mL, respectively. Also, the “Percentage vs. control (INF-γ)” value in the test on Human T cells [1] (setting [9]) is listed as 1054.1%; with Jurkat T cells [7] (setting [15]), 350%. The “IL-2 levels higher than untreated control cells” value in the test with Jurkat T cells [2] (50 μM, 48 hrs) is reported as 240%. Further, the “Average IL-2 production” value with Jurkat T cells [2] (setting [10]) is 170 pg/mL; in the test on Jurkat T cells [2] (setting [11]), 0.023 Abs 450 nm; with Human T cells [5] (Table 7, 48 hrs, 50 μM delphinidin alone) it was 370 pg/mL; in the test on Human T cells [5] (setting [14]), 87 pg/mL; with Jurkat T cells [6] it was 240 pg/mL. Further, the “Percentage vs. control (IL-2)” value in the test on Jurkat T cells [2] (setting [10]) is listed as 340%. The “Percentage compared to the control (IL-2)” value is 139.4% in the test with Jurkat T cells [2] (setting [11]) and 217.5% in the test with Human T cells [5] (setting [14]). The “IL-2 levels higher (Table 11)” value in the test with Jurkat T cells [2] (setting [12]) came to 39.4%. In addition, the “Average area under the curve of ratio 340/380 during 300 seconds” value in the test with Jurkat T cells [3] (10 μM delphinidin) stood at 100; in the test with Jurkat T cells [3] (50 μM delphinidin), 225; in the test on Jurkat T cells [3] (100 μM delphinidin) it was 250. For the same compound, the “Percentage compared to control” value with Jurkat T cells [3] (10 μM delphinidin) stood at 166.7%; in the test on Jurkat T cells [3] (50 μM delphinidin), 375%; with Jurkat T cells [3] (100 μM delphinidin) it was 416.7%. The “area under the curve higher than untreated control cells” value in the test on Jurkat T cells [3] (10 μM delphinidin) was 66.7%; in the test with Jurkat T cells [3] (50 μM delphinidin), 275%; with Jurkat T cells [3] (100 μM delphinidin) it was 316.7%. Besides, the “Ca2+ fluxes, result in words” value with Jurkat T cells [3] (10, 50, 100 μM delphinidin) is “induced Ca^2+ fluxes in Jurkat T cells in a dose-dependent manner”. Further, in the test on Jurkat T cells [4] (50 uM delphinidin, calcium free medium), the “calcium release (FIG. 1), result in words” value was “induced reversible calcium release”. Further, in the test with Jurkat T cells [4] (setting [13]), the “Average AUC of ratio 340/380 during 200 seconds (calcium release)” value turned out to be 51. In addition, the “Percentage compared to the control (calcium release)” value with Jurkat T cells [4] (setting [13]) was 1700%. The “AUC higher than untreated control cells (calcium release)” value with Jurkat T cells [4] (delphinidin 50 μM, BTP-2 10 uM) was found to be 1700%. The “IL-2 levels higher (Table 10)” value in the test with Human T cells [5] (setting [12]) is on record as 117%. In addition, the “Average AUC of ratio 340/380 150 sec. after calcium treatments (calcium entry)” value with Jurkat T cells [8] is on record as 70. Further, the “Percentage compared to control (calcium entry)” value in the test on Jurkat T cells [8] stood at 184.2%.
